According to PubChem BioAssay (NCI):
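Interpolation was linear, between the two tested concentrations surrounding the appropriate level; five concentrations were tested over 48 hours in 96-well plates. TGI: concentration producing complete growth inhibition.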

Experiments:
Assay in all cases: inhibition of tumour cell growth, NCI panel, 48 h
DLD-1 colon = system: DLD-1 colon
CCRF-CEM leukemia = system: CCRF-CEM leukemia
SK-MEL-5 melanoma = system: SK-MEL-5 melanoma
OVCAR-5 ovarian = system: OVCAR-5 ovarian
CAKI-1 renal = system: CAKI-1 renal
IGROV1 ovarian = system: IGROV1 ovarian
ACHN renal = system: ACHN renal
SF-295 CNS = system: SF-295 CNS
SK-MEL-2 melanoma = system: SK-MEL-2 melanoma
HCT-116 colon = system: HCT-116 colon
SN12C renal = system: SN12C renal
NCI-H522 lung = system: NCI-H522 lung
SW-620 colon = system: SW-620 colon
UACC-257 melanoma = system: UACC-257 melanoma
EKVX NSCLC = system: EKVX NSCLC
HT29 colon = system: HT29 colon
HCC-2998 colon = system: HCC-2998 colon
TK-10 renal = system: TK-10 renal
HL-60(TB) leukemia = system: HL-60(TB) leukemia
K-562 leukemia = system: K-562 leukemia
DMS 114 small cell lung = system: DMS 114 small cell lung
SNB-19 CNS = system: SNB-19 CNS
U251 CNS = system: U251 CNS
SNB-78 CNS = system: SNB-78 CNS
SF-268 CNS = system: SF-268 CNS
KM12 colon = system: KM12 colon
MOLT-4 leukemia = system: MOLT-4 leukemia
OVCAR-3 ovarian = system: OVCAR-3 ovarian
UACC-62 melanoma = system: UACC-62 melanoma
UO-31 renal = system: UO-31 renal
NCI-H226 lung = system: NCI-H226 lung
SK-OV-3 ovarian = system: SK-OV-3 ovarian
RXF 393 renal = system: RXF 393 renal
SK-MEL-28 melanoma = system: SK-MEL-28 melanoma
RPMI-8226 leukemia = system: RPMI-8226 leukemia
SR leukemia = system: SR leukemia
HOP-18 NSCLC = system: HOP-18 NSCLC
SF-539 CNS = system: SF-539 CNS
LXFL 529 NSCLC = system: LXFL 529 NSCLC
A549 NSCLC = system: A549 NSCLC
RXF-631 renal = system: RXF-631 renal
SNB-75 CNS = system: SNB-75 CNS
OVCAR-8 ovarian = system: OVCAR-8 ovarian
HOP-92 NSCLC = system: HOP-92 NSCLC
DMS 273 small cell lung = system: DMS 273 small cell lung
NCI-H460 lung = system: NCI-H460 lung
COLO 205 colon = system: COLO 205 colon
LOX IMVI melanoma = system: LOX IMVI melanoma
KM20L2 colon = system: KM20L2 colon
M19-MEL melanoma = system: M19-MEL melanoma
HOP-62 NSCLC = system: HOP-62 NSCLC
M14 melanoma = system: M14 melanoma
MALME-3M melanoma = system: MALME-3M melanoma
NCI-H23 lung = system: NCI-H23 lung
XF 498 CNS = system: XF 498 CNS
786-0 renal = system: 786-0 renal
HCT-15 colon = system: HCT-15 colon
A498 renal = system: A498 renal
OVCAR-4 ovarian = system: OVCAR-4 ovarian

C=C1C(=O)O[C@@H]2[C@H]1CCC(C)=C1C=CC(=O)[C@]12C
TGI (DLD-1 colon): 32.8 µM
TGI (CCRF-CEM leukemia): 26 µM
TGI (SK-MEL-5 melanoma): 27.5 µM
TGI (OVCAR-5 ovarian): 31.8 µM
TGI (CAKI-1 renal): 33.2 µM
TGI (IGROV1 ovarian): 46.7 µM
TGI (ACHN renal): 30 µM
TGI (SF-295 CNS): 32.7 µM
TGI (SK-MEL-2 melanoma): 79.4 µM
TGI (HCT-116 colon): 26.7 µM
TGI (SN12C renal): 29.3 µM
TGI (NCI-H522 lung): 6.96 µM
TGI (SW-620 colon): 18.4 µM
TGI (UACC-257 melanoma): 27.1 µM
TGI (EKVX NSCLC): 31.1 µM
TGI (HT29 colon): 24.2 µM
TGI (HCC-2998 colon): 27.8 µM
TGI (TK-10 renal): 38 µM
TGI (HL-60(TB) leukemia): 14 µM
TGI (K-562 leukemia): 90.2 µM
TGI (DMS 114 small cell lung): 29.8 µM
TGI (SNB-19 CNS): 71.8 µM
TGI (U251 CNS): 54 µM
TGI (SNB-78 CNS): 18.9 µM
TGI (SF-268 CNS): 45.9 µM
TGI (KM12 colon): 31.4 µM
TGI (MOLT-4 leukemia): 39.4 µM
TGI (OVCAR-3 ovarian): 31 µM
TGI (UACC-62 melanoma): 22.6 µM
TGI (UO-31 renal): 28.7 µM
TGI (NCI-H226 lung): 43.4 µM
TGI (SK-OV-3 ovarian): 61.4 µM
TGI (RXF 393 renal): 29.8 µM
TGI (SK-MEL-28 melanoma): 23.4 µM
TGI (RPMI-8226 leukemia): 49.7 µM
TGI (SR leukemia): 43 µM
TGI (HOP-18 NSCLC): 29.7 µM
TGI (SF-539 CNS): 30 µM
TGI (LXFL 529 NSCLC): 26.7 µM
TGI (A549 NSCLC): 73 µM
TGI (RXF-631 renal): 23.6 µM
TGI (SNB-75 CNS): 34.4 µM
TGI (OVCAR-8 ovarian): 36.1 µM
TGI (HOP-92 NSCLC): 18.5 µM
TGI (DMS 273 small cell lung): 41.1 µM
TGI (NCI-H460 lung): 35.1 µM

CC(=O)OC1CC2(C)OC(Cc3ccccc32)O1 (configuration not stated)
TGI (DLD-1 colon): > 100 µM
TGI (COLO 205 colon): > 100 µM
TGI (LOX IMVI melanoma): > 100 µM
TGI (CCRF-CEM leukemia): > 100 µM
TGI (IGROV1 ovarian): > 100 µM
TGI (ACHN renal): > 100 µM
TGI (KM20L2 colon): > 100 µM
TGI (SF-295 CNS): > 100 µM
TGI (SK-MEL-2 melanoma): > 100 µM
TGI (HCT-116 colon): > 100 µM
TGI (SN12C renal): > 100 µM
TGI (NCI-H522 lung): > 100 µM
TGI (SW-620 colon): > 100 µM
TGI (UACC-257 melanoma): > 100 µM
TGI (EKVX NSCLC): > 100 µM
TGI (M19-MEL melanoma): > 100 µM
TGI (HT29 colon): > 100 µM
TGI (HCC-2998 colon): > 100 µM
TGI (HOP-62 NSCLC): > 100 µM
TGI (TK-10 renal): > 100 µM
TGI (M14 melanoma): > 100 µM
TGI (HL-60(TB) leukemia): > 100 µM
TGI (MALME-3M melanoma): > 100 µM
TGI (K-562 leukemia): > 100 µM
TGI (DMS 114 small cell lung): > 100 µM
TGI (SNB-19 CNS): > 100 µM
TGI (U251 CNS): > 100 µM
TGI (SNB-78 CNS): > 100 µM
TGI (SF-268 CNS): > 100 µM
TGI (KM12 colon): > 100 µM
TGI (MOLT-4 leukemia): > 100 µM
TGI (OVCAR-3 ovarian): > 100 µM
TGI (UACC-62 melanoma): > 100 µM
TGI (UO-31 renal): > 100 µM
TGI (NCI-H226 lung): > 100 µM
TGI (NCI-H23 lung): > 100 µM
TGI (SK-OV-3 ovarian): > 100 µM
TGI (XF 498 CNS): > 100 µM
TGI (RXF 393 renal): > 100 µM
TGI (SK-MEL-28 melanoma): > 100 µM
TGI (RPMI-8226 leukemia): > 100 µM
TGI (SR leukemia): > 100 µM
TGI (HOP-18 NSCLC): > 100 µM
TGI (SF-539 CNS): > 100 µM
TGI (A549 NSCLC): > 100 µM
TGI (SNB-75 CNS): > 100 µM
TGI (OVCAR-8 ovarian): > 100 µM
TGI (HOP-92 NSCLC): > 100 µM
TGI (DMS 273 small cell lung): > 100 µM
TGI (NCI-H460 lung): > 100 µM
TGI (786-0 renal): > 100 µM

CCOc1ccc(/C(C=O)=C(\Cl)c2ccc(OC)c(OC)c2)cc1
TGI (DLD-1 colon): > 100 µM
TGI (COLO 205 colon): > 100 µM
TGI (LOX IMVI melanoma): > 100 µM
TGI (CCRF-CEM leukemia): > 100 µM
TGI (SK-MEL-5 melanoma): > 100 µM
TGI (CAKI-1 renal): > 100 µM
TGI (IGROV1 ovarian): > 100 µM
TGI (HCT-15 colon): > 100 µM
TGI (ACHN renal): > 100 µM
TGI (KM20L2 colon): > 100 µM
TGI (SF-295 CNS): > 100 µM
TGI (SK-MEL-2 melanoma): > 100 µM
TGI (HCT-116 colon): > 100 µM
TGI (SN12C renal): > 100 µM
TGI (NCI-H522 lung): > 100 µM
TGI (SW-620 colon): > 100 µM
TGI (EKVX NSCLC): > 100 µM
TGI (M19-MEL melanoma): > 100 µM
TGI (HT29 colon): > 100 µM
TGI (TK-10 renal): > 100 µM
TGI (M14 melanoma): > 100 µM
TGI (HL-60(TB) leukemia): > 100 µM
TGI (MALME-3M melanoma): > 100 µM
TGI (K-562 leukemia): > 100 µM
TGI (DMS 114 small cell lung): > 100 µM
TGI (SNB-19 CNS): > 100 µM
TGI (A498 renal): > 100 µM
TGI (U251 CNS): > 100 µM
TGI (SNB-78 CNS): > 100 µM
TGI (SF-268 CNS): > 100 µM
TGI (OVCAR-3 ovarian): > 100 µM
TGI (UACC-62 melanoma): > 100 µM
TGI (UO-31 renal): > 100 µM
TGI (NCI-H226 lung): > 100 µM
TGI (NCI-H23 lung): > 100 µM
TGI (SK-OV-3 ovarian): > 100 µM
TGI (XF 498 CNS): 79.2 µM
TGI (SK-MEL-28 melanoma): > 100 µM
TGI (RPMI-8226 leukemia): > 100 µM
TGI (HOP-18 NSCLC): > 100 µM
TGI (SF-539 CNS): > 100 µM
TGI (LXFL 529 NSCLC): > 100 µM
TGI (RXF-631 renal): > 100 µM
TGI (OVCAR-8 ovarian): > 100 µM
TGI (HOP-92 NSCLC): > 100 µM
TGI (DMS 273 small cell lung): > 100 µM
TGI (NCI-H460 lung): > 100 µM

CN(C)CCC(CCN(C)C)=NOC(=O)c1ccccc1
TGI (DLD-1 colon): > 100 µM
TGI (COLO 205 colon): > 100 µM
TGI (CCRF-CEM leukemia): > 100 µM
TGI (SK-MEL-5 melanoma): > 100 µM
TGI (CAKI-1 renal): > 100 µM
TGI (IGROV1 ovarian): > 100 µM
TGI (HCT-15 colon): > 100 µM
TGI (ACHN renal): > 100 µM
TGI (KM20L2 colon): > 100 µM
TGI (SF-295 CNS): > 100 µM
TGI (SK-MEL-2 melanoma): > 100 µM
TGI (HCT-116 colon): > 100 µM
TGI (SN12C renal): > 100 µM
TGI (NCI-H522 lung): > 100 µM
TGI (SW-620 colon): > 100 µM
TGI (UACC-257 melanoma): > 100 µM
TGI (EKVX NSCLC): > 100 µM
TGI (M19-MEL melanoma): > 100 µM
TGI (HT29 colon): > 100 µM
TGI (HCC-2998 colon): > 100 µM
TGI (HOP-62 NSCLC): > 100 µM
TGI (TK-10 renal): > 100 µM
TGI (M14 melanoma): > 100 µM
TGI (HL-60(TB) leukemia): > 100 µM
TGI (MALME-3M melanoma): > 100 µM
TGI (K-562 leukemia): > 100 µM
TGI (DMS 114 small cell lung): > 100 µM
TGI (SNB-19 CNS): > 100 µM
TGI (A498 renal): > 100 µM
TGI (U251 CNS): > 100 µM
TGI (OVCAR-4 ovarian): > 100 µM
TGI (SF-268 CNS): > 100 µM
TGI (KM12 colon): > 100 µM
TGI (MOLT-4 leukemia): > 100 µM
TGI (OVCAR-3 ovarian): > 100 µM
TGI (UACC-62 melanoma): > 100 µM
TGI (UO-31 renal): > 100 µM
TGI (NCI-H23 lung): > 100 µM
TGI (SK-OV-3 ovarian): > 100 µM
TGI (XF 498 CNS): > 100 µM
TGI (RXF 393 renal): > 100 µM
TGI (SK-MEL-28 melanoma): > 100 µM
TGI (RPMI-8226 leukemia): > 100 µM
TGI (HOP-18 NSCLC): > 100 µM
TGI (SF-539 CNS): > 100 µM
TGI (LXFL 529 NSCLC): > 100 µM
TGI (A549 NSCLC): > 100 µM
TGI (RXF-631 renal): > 100 µM
TGI (SNB-75 CNS): > 100 µM
TGI (OVCAR-8 ovarian): > 100 µM
TGI (DMS 273 small cell lung): > 100 µM
TGI (NCI-H460 lung): > 100 µM
TGI (786-0 renal): > 100 µM
